Results: patent EP4635488A1, “PHARMACEUTICAL COMPOSITION FOR PREVENTING OR TREATING BONE DISEASES” (Industry Foundation of Chonnam National University, priority 2022, dated 2024)

Legend:
[1] = tested on: osteoclast-specific genes; experiment: Quantitative real-time PCR of osteoclast-specific genes; format: cell-based, C57/BL6 mice; conditions: Acp5, NFATc1, DC-STAMP, ATP6V0d2, MMP9 and Ctsk; 0, 1, 2, and 4 days
Description: Total RNA from BMM was isolated using QIAzol RNA lysis reagent (Qiagen Sciences, Valencia, CA, USA).
Specifically, FIGS. 5A to 5F show the results of measuring the relative mRNA levels of the indicated osteoclast-specific genes using qRT-PCR with or without 25-KR-03 treatment for 0, 1, 2, and 4 days. Black bars represent M-CSF and RANKL treatment groups ("Con") and gray bars correspond to 25-KR-03 treatment groups. Transcript levels were normalized to expression at day 0. All experiments were repeated three times.

RANKL-induced BMM = experiment: In vitro osteoclast formation assay (TRAP staining / TRAP activity); format: cell-based, C57/BL6 mice
Experimental: (§1) Bone marrow cells (BMC) were obtained from 8-week-old female C57/BL6 mice by washing femurs and tibias with α-MEM. BMCs were then cultured overnight in full α-MEM containing 10% FBS, 100 U/mL penicillin, and 100 µg/mL streptomycin. Non-attached cells were collected and cultured with M-CSF (30 ng/ mL) for 3 days, and then the attached cells were used as BMM. All animal experiments were approved by Chonnam National University IACUC (approval number: CNU IACUC-YB-2019-49).
(§2) To generate osteoclasts, BMMs were harvested and cultured in a complete medium containing 30 ng/mL M-CSF and 50 ng/mL RANKL with or without compounds for approximately 4 days to obtain mature osteoclasts. Differentiated osteoclasts were fixed with 4% formalin for 15 minutes, and then the cells were stained using a TRAP staining kit. The spread of osteoclast areas could be observed under the microscope. The viability of BMM (1 × 10^4 cells/well) was assessed in a 96-well plate using a cell viability assay kit as previously described.

[2] = tested on: OVX-induced osteoporosis mouse model; experiment: OVX-induced osteoporosis mouse model (micro-CT, body weight); format: in vivo, C57BL/6 female mice
Experimental: Specific pathogen-free facilities were used to grow mice. To investigate the effects of 25-KR-03 in vivo, the inventors established an OVX-induced osteoporosis mouse model as previously described. Seven-week-old C57BL/6 female mice were divided into four groups (Sham, OVX, 25-KR-03, and PMSA-3-Ac). Among them, the OVX, 25-KR-03, and PMSA-3-Ac groups underwent OVX surgery.
After a 1-week recovery period, mice were intraperitoneally injected with 25-KR-03 or PMSA-3-Ac (20 mg/kg, dissolved in a mixture of 10 % Tween 80 and 10% DMSO) once daily for 4 weeks. The sham and control (OVX) groups received equal volumes of the mixture of 10 % Tween 80 and 10% DMSO once daily for 4 weeks. Body weights of the mice were measured weekly. When the mice were euthanized, the femurs were isolated and fixed in 4.0% paraformaldehyde for micro-computed tomography (micro-CT) analysis as previously performed.
Micro-CT scanning was performed as in previous studies. The Quantum GX Micro-CT imaging system (PerkinElmer, Hopkinton, MA, USA) was used at the Korea Basic Science Institute (Gwangju, Korea).

NFATc1 = experiment: Western blotting analysis of osteoclast proteins and NFATc1 nuclear translocation; format: cell-based, C57/BL6 mice
Experimental: Total protein was extracted from osteoclasts and processed by a conventional method. To obtain total cell lysates, cells were lysed in ice-cold RIPA buffer for 30 min. After measuring the total protein concentration using the Enhanced BCA Protein Assay Kit, the protein was separated using 8-12% SDS-PAGE and transferred to a polyvinylidene fluoride membrane. Next, the membrane was blocked using 5% skim milk and incubated with a primary antibody (1:2,000 dilution) overnight. After incubation with a secondary antibody (1:2,000 dilution) for 1 hour, the membrane was washed and developed using an enhanced chemiluminescence (ECL) buffer as previously described. Relative protein expression was calculated by densitometric analysis using Image J software.
Specifically, in FIG. 6A, immunoblotting was performed for analysis. Culture was performed with or without 25-KR-03 for the indicated days in induction medium. […] GAPDH/LaminB1 was used as a loading control.

[3] = tested on: osteoclast bone resorption; experiment: Bone resorption analysis on fluoresceine amine-labeled calcium phosphate plates; format: cell-based, C57/BL6 mice
Experimental: (§3) Bone resorption analysis was performed by a conventional method. Briefly, BMMs (2 × 10^4 cells/well) were seeded into a coated 48-well plate provided in the kit. After culturing with or without the indicated doses of 25-KR-03 and PMSA-3-Ac until mature osteoclasts were observed, 100 µL supernatant was harvested from each well and placed in a black polypropylene 96-well microplate. Fluorescence intensity was measured using a SpectraMax i3x fluorescence plate reader (excitation wavelength 485 nm; emission wavelength 535 nm). The decalcified pit area was visible under a microscope and calculated using ImageJ software. F-actin rings were visible using a rhodamine-coupled phalloidin staining assay (Thermo Fisher Scientific) as previously described.
(§4) In FIG. 4C, the fluorescence intensity of each group after 6 days was measured at excitation and emission wavelengths of 485 nm and 535 nm, respectively. All experiments were repeated three times.

BMDMs = experiment: Cell viability assay of BMM/BMDMs; format: cell-based, C57/BL6 mice; conditions: below 4 µM; 48 hours
Experimental: as §1, §2

[4] = tested on: F-actin belts of mature osteoclasts; experiment: F-actin ring immunofluorescence analysis (phalloidin staining); format: cell-based, C57/BL6 mice
Experimental: as §3, §4

[5] = tested on: human IPSC-derived macrophages; experiment: Human osteoclast differentiation model (TRAP staining / TRAP activity); format: cell-based; conditions: 10 days; 50 ng/mL hM-CSF and 100 ng/mL hRANKL
Experimental: However, it is unclear whether 25-KR-03 has an inhibitory effect on human osteoclast differentiation. Accordingly, a human osteoclast differentiation model was established using human IPSC-derived macrophages. Cells were incubated with 50 ng/mL human M-CSF and 100 ng/mL RANKL to induce mature osteoclast formation.
Specifically, in FIG. 7A, the inhibitory effect of 25-KR-03 on human osteoclast differentiation was analyzed through TRAP staining. Human IPSC-derived macrophages were treated with the indicated concentrations of 25-KR-03 for 10 days in the induction medium containing 50 ng/mL hM-CSF and 100 ng/mL hRANKL. After the formation of multinucleated osteoclasts, TRAP staining was performed to visualize the formed osteoclasts.

COC(=O)c1cccc(NCC(=O)Nc2ccccc2Sc2ccccc2)c1 [Compound 25-KR-03, Methyl 3-((2-oxo-2-((2-(phenylthio)phenyl)amino)ethyl)amino)benzoate]
relative mRNA expression levels of RANKL-induced osteoclastogenesis-related genes [1]: obviously decreased | inhibitory effect on osteoclast differentiation (RANKL-induced BMM; 2 µM, TRAP staining): almost complete inhibition | inhibition at 1 µM (RANKL-induced BMM; Mus musculus, 1 µM, osteoclast differentiation in RANKL-induced BMM, mean ± SD from at least three experiments, read-out: Inhibition rate (%)): 72.3 ± 6.33% | inhibition at 2 µM (RANKL-induced BMM; Mus musculus, 2 µM, osteoclast differentiation in RANKL-induced BMM, mean ± SD from at least three experiments, read-out: Inhibition rate (%)): 99.89 ± 0.04% | IC50 (RANKL-induced BMM; Mus musculus, Differentiation of BMDM, based on TRAP activity, 0 to 4000 nM): 0.323 µM | formation of multinucleated mature osteoclasts (RANKL-induced BMM; RANKL-induced, concentration range up to 4000 nM): completely blocked | prevention of bone loss (Tb.Th and BMD values, micro-CT of femur) ([2]; 20 mg/kg intraperitoneally once daily for 4 weeks after surgery, compared with the OVX group): slight but significant prevention of bone loss | body weight ([2]; 20 mg/kg intraperitoneally once daily, 4 weeks): no significant weight reduction | NFATc1 protein levels in the nucleus (NFATc1; BMDMs, 48 hours): significantly reduced | NFATc1 protein levels in the cytoplasm (NFATc1; BMDMs, 48 hours, not significant): slightly increased | protein expression of Ctsk (NFATc1; Western blotting): significantly inhibited | protein expression of NFATc1, Traf6, c-src, GSK3β and calcineurin A (NFATc1; Western blotting, compared to the control group): no significant effect | resorption pit area ([3]; 0.5, 1, and 2 µM, M-CSF and RANKL, 6 days): significantly reduced | fluorescence intensity ([3]; dose-dependent manner, 6 days, excitation 485 nm, emission 535 nm): reduced | bone resorption inhibition compared with control inhibitor ([3]; versus PMSA-3-Ac): more effective than PMSA-3-Ac | cell viability of BMDMs (BMDMs): no significant effect | actin ring formation ([4]; at the indicated doses, RANKL/M-CSF-induced): inhibited | osteoclast F-actin belt formation, inhibition compared with control inhibitor ([4]; versus PMSA-3-Ac (10 µM)): more strongly than PMSA-3-Ac | inhibitory effect on human osteoclast differentiation [5]: has bioactivity in both mouse and human cells
